Data as given in patent publication US4882419A, “Process for preparing antibiotic L 17392 (deglucoteicoplanin)” (Gruppo Lepetit S.p.A., priority 1984, dated 1989).
Values after ≈ are worked out from the molar mass of the structure shown.

Tests used:
[1] = Solubility (physico-chemical characteristics); assay type: physicochemical
[2] = Potentiometric titration profile (pH1/2 values); assay type: physicochemical; conditions: methylcellosolve:water 4:1, titration with 0.01N NaOH
[3] = test system: Escherichia coli SKF 12140; test: In vitro antibacterial activity, two-fold dilution MIC in microtiter system; assay type: cell-based; conditions: Isosensitest broth, inoculum about 10^4 cfu/ml, 18-24 h at 37° C.
Experimental: (§1) The in vitro antibacterial activity of L 17392 was determined using the two-fold dilution method in microtiter system. Todd-Hewitt broth (Difco) was used for streptococci and Isosensitest broth (Oxoid) for staphylococci and gram-negative bacteria. Overnight broth cultures were diluted so that the final inoculum was about 10^4 colony-forming units per ml (cfu/ml).

[4] = test system: Proteus vulgaris × 19 H ATCC 881; test: as above; assay type: cell-based; conditions: Isosensitest broth, inoculum about 10^4 cfu/ml, 18-24 h at 37° C.
Experimental: as §1

[5] = test system: Pseudomonas aeruginosa ATCC 10145; test: as above; assay type: cell-based; conditions: Isosensitest broth, inoculum about 10^4 cfu/ml, 18-24 h at 37° C.
Experimental: as §1

[6] = test system: Staphylococcus aureus ATCC 6538; test: as above; assay type: cell-based; conditions: Isosensitest broth, inoculum about 10^4 cfu/ml, 18-24 h at 37° C.
Experimental: as §1

[7] = test system: Streptococcus faecalis ATCC 7080; test: as above; assay type: cell-based; conditions: Todd-Hewitt broth, inoculum about 10^4 cfu/ml, 18-24 h at 37° C.
Experimental: as §1

[8] = test system: Streptococcus pneumoniae UC 41; test: as above; assay type: cell-based; conditions: Todd-Hewitt broth, inoculum about 10^4 cfu/ml, 18-24 h at 37° C.
Experimental: as §1

[9] = test system: Streptococcus pyogenes C 203; test: as above; assay type: cell-based; conditions: Todd-Hewitt broth, inoculum about 10^4 cfu/ml, 18-24 h at 37° C.
Experimental: as §1

[10] = test system: Staplylococcus aureus Tour; test: as above; assay type: cell-based, Staphylococcus aureus
Experimental: as §1, with “(cfu/ml). […] The obtained results are reported in Table I below: | ^(a) Inoculum: 10^6 cfu/ml | ^(b) Determined in the presence of 30% bovine serum” for “(cfu/ml).”

[11] = test system: Staphylococcus epieermidis ATCC 12228; test: as above; assay type: cell-based, Staphylococcus epidermidis; conditions: Isosensitest broth, inoculum about 10^4 cfu/ml, 18-24 h at 37° C.
Experimental: as §1

S. aureus L 1096 = test: MIC against clinical isolate methicillin-resistant staphylococci; assay type: cell-based
Experimental: as §1

S. aureus L 1097 = test: as above; assay type: cell-based
Experimental: as §1

S. aureus L 1524 = test: as above; assay type: cell-based
Experimental: as §1

S. aureus L 1526 = test: as above; assay type: cell-based
Experimental: as §1

S. epidermidis L 1142 = test: as above; assay type: cell-based
Experimental: as §1

S. epidermidis L 1372 = test: as above; assay type: cell-based
Experimental: as §1

S. epidermidis L 1378 = test: as above; assay type: cell-based
Experimental: as §1

S. epidermidis L 785 = test: as above; assay type: cell-based
Experimental: as §1

S. epidermidis L 835 = test: as above; assay type: cell-based
Experimental: as §1

[12] = test system: staphylocci (S. aureus, S. epidermidis); test: Antibacterial activity against staphylococci, in words; assay type: cell-based
Experimental: as §1

[13] = test system: clinical isolate methicillin-resistant staphylococci (S. aureus, S. epidermidis); test: Antibacterial activity against methicillin-resistant staphylococci, in words; assay type: cell-based; conditions: various clinical isolates
Experimental: as §1

[14] = pKa of a sample dissolved in methylcellosolve/water 4:1; assay type: physicochemical

In the case of `CC(=O)N[C@@H]1[C@@H](O[C@H]2c3ccc(c(Cl)c3)Oc3cc4cc(c3O)Oc3ccc(cc3Cl)C[C@@H]3NC(=O)[C@@H](N)c5ccc(O)c(c5)Oc5cc(O)cc(c5)[C@@H](NC3=O)C(=O)N[C@@H]4C(=O)N[C@@H]3C(=O)N[C@H]2C(=O)N[C@@H](C(=O)O)c2cc(O)cc(O)c2-c2cc3ccc2O)O[C@@H](CO)[C@H](O)[C@H]1O` (stereo in doubt) [antibiotic L 17046], the solubility ([1]; dimethylformamide, dimethylsulfoxide, propyleneglycol and methylcellosolve) is reported as “freely soluble”, the solubility ([1]; methanol) is reported as “slightly soluble” and the solubility ([1]; n-hexane, ethyl ether and acetone) is reported as “almost insoluble”. For the same compound, the solubility ([1]; water at pH>8.0) was “freely soluble”, the “pH1/2 value, third titration slope” value ([2]; five equivalents) was 11 and the “pH1/2 value, first titration slope” value ([2]; one equivalent) was 5.0. For the same compound, the “pH1/2 value, second titration slope” value ([2]; one equivalent) was 7.0.
`N[C@H]1C(=O)N[C@@H]2Cc3ccc(c(Cl)c3)Oc3cc4cc(c3O)Oc3ccc(cc3Cl)[C@@H](O)[C@@H]3NC(=O)[C@H](NC(=O)[C@@H]4NC(=O)[C@@H](NC2=O)c2cc(O)cc(c2)Oc2cc1ccc2O)c1ccc(O)c(c1)-c1c(O)cc(O)cc1[C@@H](C(=O)O)NC3=O` [antibiotic L 17392, deglucoteicoplanin] showed an MIC [3] of 25 µg/mL (≈ 20.9 µM), an MIC [4] of 50 µg/mL (≈ 41.7 µM) and an MIC [5] greater than 100 µg/mL. It also gave an MIC [6] of 0.025 µg/mL (≈ 0.0209 µM), an MIC [7] of 0.1 µg/mL (≈ 0.0834 µM) and an MIC [8] of 0.05 µg/mL (≈ 0.0417 µM). It also gave an MIC [9] of 0.05 µg/mL (≈ 0.0417 µM), an MIC ([10]; Determined in the presence of 30% bovine serum) of 0.2 µg/mL and an MIC ([10]; Inoculum: 10^6 cfu/ml) of 0.2 µg/mL (≈ 0.167 µM). For the same compound, the MIC ([10]; Isosensitest broth, inoculum about 10^4 cfu/ml, 18-24 h at 37° C.) was 0.05 µg/mL (≈ 0.0417 µM), the MIC [11] was 0.0125 µg/mL (≈ 0.0104 µM) and the MIC (S. aureus L 1096) was 0.05 µg/mL (≈ 0.0417 µM). For the same compound, the MIC (S. aureus L 1097) was 0.05 µg/mL (≈ 0.0417 µM), the MIC (S. aureus L 1524) was 0.1 µg/mL (≈ 0.0834 µM) and the MIC (S. aureus L 1526) was 0.05 µg/mL (≈ 0.0417 µM). For the same compound, the MIC (S. epidermidis L 1142) was 0.05 µg/mL (≈ 0.0417 µM), the MIC (S. epidermidis L 1372) was 0.2 µg/mL (≈ 0.167 µM) and the MIC (S. epidermidis L 1378) was 0.05 µg/mL (≈ 0.0417 µM). The MIC (S. epidermidis L 785) was 0.05 µg/mL (≈ 0.0417 µM), the MIC (S. epidermidis L 835) was 0.05 µg/mL (≈ 0.0417 µM) and the solubility ([1]; aqueous methanol, ethanol and acetone) was “soluble”. For the same compound, the solubility ([1]; ethyl alcohol and dimethylformamide) was “slightly soluble”, the solubility ([1]; water at a pH higher than 9) was “soluble” and the “activity against staphylococci (in words)” value [12] was “very active”. The “activity against methicillin-resistant staphylococci (in words)” value [13] was “very effective”.
Compound “deglucoteicoplanin benzyl ester, hydrochloride” has a pKa value [14] of 6.67.
